Source: US20090162280A1, “DETECTING SOLUBLE A-BETA” (GENERAL ELECTRIC COMPANY, priority 2007, published 2009)

How the values were obtained:
[1] = target: T1, soluble A-beta oligomers (beta-amyloid 1-42 oligomer, 20% biotin) (Homo sapiens, UniProt P05067); assay: SPA competition binding against tritium labeled 49b on soluble A-beta oligomers; conditions: for % inhibition: 50 uM unlabeled competitor, 130 nM tritium labeled-49b; for IC50: 130 nM 3H-49b, unlabeled competitor
T1 construct: 1 mg of human beta-amyloid 1-42 (H-1368, Bachem); purchased Bachem H-1368 (unlabelled), H-5642 (biotinylated)
Method: A. Soluble A-beta. 1 mg of human beta-amyloid 1-42 (H-1368, Bachem) and 500 uL of 1,1,1,3,3,3 hexafluoro-2-propanol (HFIP) (Aldrich) were chilled in separate bottles on ice for 30 minutes. Cold beta-amyloid 1-42 was solubilized with cold HFIP. The mixture was incubated for 1 hr at room temperature until it turned clear. The resulting solution was then dried to a film under vacuum. The film was dissolved again in cold HFIP and incubated another 1 hr at room temperature. The resulting solution was separated into aliquots in several microcentrifuge tubes. HFIP was removed under vacuum, and the films were stored at −20° C. until use. To prepare soluble oligomer, the film was dissolved in appropriate amount of dry DMSO (Sigma), and Ham's F12 media (Biosource) or PBS (Sigma, D8537) was added and incubated at 4° C. for 24 hours (final concentration of 200 uM or 0.9 mg/mL beta-amyloid in 2% DMSO). The tube containing the soluble oligomers was centrifuged at 13,000 rpm for 5 minutes, and its supernatant was transferred to a clean tube.
The three compounds shown in Table 1 were synthesized and evaluated for their ability to bind to soluble A-beta using the scintillation proximity assays (SPA) and/or AFM as described below. The percent inhibition reported was for 50 uM of the indicated unlabeled competitor and 130 nM of tritium labeled-49b.
(§1) For SPA and atomic force microscopy experiments, preparations of soluble oligomers and fibrils contained 20% biotinylated beta-amyloid 1-42 and 1-40, respectively (H-5642, H-5914, Bachem).
Lyophilized Streptavidin-Ysi beads (GE Healthcare) were reconstituted to 100 mg/mL in deionized water, and then further diluted in deionized water to give a suspension containing 0.25 mg/10 μL water. Unlabeled 49b, PIB and compound of formula III (353207) were dissolved in DMSO to give a final stock concentration of 15 mM.
For the saturation-binding assay, isotopic dilution of radiolabeled 49b with unlabeled 49b was performed. ^3H-49b was added to 500 uM of unlabeled 49b to a final concentration of 50 μCi/mL ^3H-49b. The probe solution was then serially diluted in PBS to give six solutions giving 6.6, 13.1, 26.3, 52.5, 105, or 210 uM in the final assay well. Each concentration of the probe solution was incubated with 12 μg beta-amyloid 1-42 oligomer (20% biotin) or 1-40 (20% biotin) fibrils in a total volume of 90 μL. Assays were incubated at room temp for 2 hrs before addition of 10 μL YSi-streptavidin (0.25 mg) SPA bead. Assays were set-up in triplicate in 96-well NBS plates (Costar). Assays were incubated overnight and counted the following morning. […] The specific activities of four probes were different, however the level of activity was the same at the concentrations where the probes were tested. […]

Aβ 1-40 fibrils = target: T2, Aβ 1-40 fibrils (Homo sapiens, UniProt P05067); assay: SPA competition binding against 3H-PIB on A-beta fibrils; conditions: ~30 nM [3H]PIB, 10 μg Aβ 1-40 fibrils, unlabeled competitor
T2 construct: Lyophilized human beta-amyloid 1-40 peptide (Catalog number H-1194, Bachem); purchased Bachem H-1194 (unlabelled), H-5914 (biotinylated)
Method: For the ^3H-PIB binding reaction, 10 μg Aβ 1-40 fibrils were incubated with ˜30 nM [^3H]PIB in the presence of the unlabeled competitors in a total volume of 90 μl PBS. […] Non-specific binding wells contained PBS instead of fibril/oligomer. Assays were incubated at room temperature for 2 hr before addition of 10 μl YSi-streptavidin bead (0.13 mg). Assays were shaken for 1 min and then incubated overnight before counting the following morning using Microbeta.
(§2) Data analyses were performed using Sigma Plot or GraphPad Prism® version 4. Curves were fitted using non-linear regression. KD values and IC50 values were estimated from the binding curves.

[2] = target: T3, beta-amyloid 1-40 fibrils (20% biotin) (Homo sapiens, UniProt P05067); assay: SPA saturation binding of 3H-49b to 1-40 fibrils; conditions: same conditions as for soluble oligomers; compared with oligomers
T3 construct: Lyophilized human beta-amyloid 1-40 peptide (Catalog number H-1194, Bachem); purchased Bachem H-1194 (unlabelled), H-5914 (biotinylated)
Method: B. Insoluble A-beta (1-40) fibril formation: Lyophilized human beta-amyloid 1-40 peptide (Catalog number H-1194, Bachem) was solubilized with HFIP to produce a dry clear film following the process described above for beta-amyloid 1-42. The clear film of beta-amyloid 1-40 was diluted with 10 mM phosphate buffer, pH 7.4, containing 1 mM EDTA, such that final Aβ concentration was 0.5 mg/ml, then mixed briefly. The solution was incubated at 37° C. on an orbital shaker set at 200 rpm for 48 h. A cloudy solution was produced, and the fibril production was confirmed by measuring changes in fluorescence of Thioflavin T, as well as by atomic force microscopy and transmission electron microscopy. Fibrils were used immediately after their production was confirmed.
as §1
For the saturation-binding assay, isotopic dilution of radiolabeled 49b with unlabeled 49b was performed. ^3H-49b was added to 500 uM of unlabeled 49b to a final concentration of 50 μCi/mL ^3H-49b. The probe solution was then serially diluted in PBS to give six solutions giving 6.6, 13.1, 26.3, 52.5, 105, or 210 uM in the final assay well. […] Assays were incubated overnight and counted the following morning. […]

[3] = target: T1, soluble A-beta oligomers (beta-amyloid 1-42 oligomer, 20% biotin); assay: SPA saturation / direct binding of tritium labeled probes to soluble A-beta oligomers
Method: For the saturation-binding assay, isotopic dilution of radiolabeled 49b with unlabeled 49b was performed. ^3H-49b was added to 500 uM of unlabeled 49b to a final concentration of 50 μCi/mL ^3H-49b. The probe solution was then serially diluted in PBS to give six solutions giving 6.6, 13.1, 26.3, 52.5, 105, or 210 uM in the final assay well. Each concentration of the probe solution was incubated with 12 μg beta-amyloid 1-42 oligomer (20% biotin) or 1-40 (20% biotin) fibrils in a total volume of 90 μL. Assays were incubated at room temp for 2 hrs before addition of 10 μL YSi-streptavidin (0.25 mg) SPA bead. Assays were set-up in triplicate in 96-well NBS plates (Costar). Assays were incubated overnight and counted the following morning. […] Assay conditions were the same as described in saturation binding assay.
as §2
A direct binding assay using tritium labeled 49b was performed against oligomers or fibrils by scintillation proximity assay (SPA). Beta-amyloid containing 20% biotin and tritiated 49b were incubated in solution for two hours prior to addition of the Ysi-Streptavidin beads.

1-42 fibrils = 1-42 fibrils (Homo sapiens, UniProt P05067); assay: SPA binding of 3H-49b to 1-42 fibrils; conditions: same conditions used to measure binding to soluble oligomers
[4] = saturation binding with oligomers

T1 sequence (P05067 672-713): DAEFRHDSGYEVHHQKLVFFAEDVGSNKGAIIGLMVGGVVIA
T2 sequence (P05067 672-711): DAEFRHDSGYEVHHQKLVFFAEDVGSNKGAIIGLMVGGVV
Chain of 1-42 fibrils (P05067 672-713): as the sequence (P05067 672-713) above
T3 sequence (P05067 672-711): as the sequence (P05067 672-711) above

SMILES	% inhibition [1]	IC50 [1]	competition of tritium labeled PIB binding to fibrils (in words) (Aβ 1-40 fibrils)	binding to 1-40 fibrils [2]	Kd ([3]; 3H-49b isotopically diluted with unlabeled 49b, incubated with oligomers, read-out: binding constant (saturation binding))	specificity, oligomers over fibrils ([3]; direct binding of 3H-49b, oligomers versus fibrils)	Bmax [3, 4]	molar ratio probe:beta-amyloid at Bmax [3, 4]	affinity for 1-42 fibrils (1-42 fibrils)
CNc1ccc(-c2nc3ccc(O)cc3s2)cc1 [Formula I, 2-(4-methylamino)phenylbenzothiazol-6-ol, reference compound]	3%								
O=C(Nc1ccc(O)c(C(=O)O)c1)c1ccc(-c2ccc(C(=O)Nc3ccc(O)c(C(=O)O)c3)cc2)cc1 [Formula III]	82%	1 to 7 µM	did not compete						
O=Cc1ccc(-c2oc3ccccc3c2CO)o1 [Formula II, 2-(2-formyl-5-furanyl)-3-hydroxymethyl benzofuran]		60 µM	not competed	Much less binding was observed	50 µM	showed specificity to oligomers over fibrils	60-80 nmol/mg beta-amyloid	1 probe:3-4 beta-amyloid	no measurable affinity could be determined
